Assay results from US20140155384A1, “COMPOUNDS AND METHODS OF TREATING DIABETES” (Medivation Technologies, Inc., priority 2011, published 2014).

Key:
[1] = target: T1, human recombinant adrenergic α2B receptor (Homo sapiens, UniProt P18089); test: Radioligand binding, adrenergic α2B receptor ([3H]Rauwolscine); conditions: CHO-K1 cells, read-out: Percentage inhibition of ligand binding, Adrenergic α2B; for inhibition at 0.1 µM: 0.1 μM compound
T1 construct: expressed in transfected cells; host or cells: CHO-K1
T1 sequence (P18089 1-450): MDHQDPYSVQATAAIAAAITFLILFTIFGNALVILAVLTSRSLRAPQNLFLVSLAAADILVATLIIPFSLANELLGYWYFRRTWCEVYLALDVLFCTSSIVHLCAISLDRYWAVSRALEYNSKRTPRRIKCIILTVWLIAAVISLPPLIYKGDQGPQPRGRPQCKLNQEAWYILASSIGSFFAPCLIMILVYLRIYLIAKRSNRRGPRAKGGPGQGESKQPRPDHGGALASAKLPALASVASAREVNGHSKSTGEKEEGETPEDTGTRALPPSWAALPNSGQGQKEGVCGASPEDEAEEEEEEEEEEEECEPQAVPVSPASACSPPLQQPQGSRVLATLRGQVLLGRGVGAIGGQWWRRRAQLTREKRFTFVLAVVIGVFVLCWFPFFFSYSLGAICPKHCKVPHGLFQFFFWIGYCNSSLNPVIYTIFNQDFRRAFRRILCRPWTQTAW
Procedure: To evaluate in radioligand binding assays the activity of compounds, human recombinant adrenergic α2B receptor expressed in Chinese hamster ovary (CHO) K1 cells (Uhlen, S. et al, Eur. J. Pharmacol. 343(1):93, 1998) in a modified Tris-HCl buffer (50 mM Tris-HCl, pH 7.4, 12.5 mM MgCl2, 1 mM EDTA, 0.2% BSA) was used. Compounds were incubated with 2.5 nM [^3H]Rauwolscine for 60 min at 25° C. Non-specific binding was estimated in the presence of 10 μM Prazosin. Receptor proteins were filtered and washed, the filters were then counted to determine [^3H]Rauwolscine specifically bound. Compounds were screened at 1 μM or lower, using 1% DMSO as vehicle. Compounds were tested in this biochemical assay and percent inhibition of specific binding was determined. Biochemical assay results are presented as the percent inhibition of specific binding in Table 2.

[2] = target: T2, human recombinant adrenergic α1D receptor (Homo sapiens, UniProt P25100); test: Radioligand binding, adrenergic α1D receptor ([3H]Prazosin); conditions: 0.1 μM compound; HEK-293 cells; 0.6 nM [3H]Prazosin; read-out: Percentage inhibition of ligand binding, Adrenergic α1D
T2 construct: expressed in transfected cells; host or cells: HEK-293
T2 sequence (P25100 1-572): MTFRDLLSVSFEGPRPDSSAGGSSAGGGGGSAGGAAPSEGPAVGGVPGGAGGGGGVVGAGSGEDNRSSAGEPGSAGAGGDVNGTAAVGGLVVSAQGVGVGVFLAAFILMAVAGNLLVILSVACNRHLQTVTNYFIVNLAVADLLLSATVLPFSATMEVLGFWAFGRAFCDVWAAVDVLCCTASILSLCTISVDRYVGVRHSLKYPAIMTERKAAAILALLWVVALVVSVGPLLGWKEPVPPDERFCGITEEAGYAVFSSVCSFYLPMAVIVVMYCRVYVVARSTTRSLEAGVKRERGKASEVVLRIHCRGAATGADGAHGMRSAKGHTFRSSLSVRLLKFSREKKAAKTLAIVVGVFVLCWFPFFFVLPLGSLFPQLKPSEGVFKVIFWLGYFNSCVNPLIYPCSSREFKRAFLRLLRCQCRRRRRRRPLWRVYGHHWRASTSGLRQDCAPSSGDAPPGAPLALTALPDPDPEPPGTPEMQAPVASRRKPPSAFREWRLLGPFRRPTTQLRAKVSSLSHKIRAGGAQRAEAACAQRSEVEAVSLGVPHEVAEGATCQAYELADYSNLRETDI
Procedure: Compounds were incubated with 0.6 nM [3H]Prazosin for 60 min at 25° C. Non-specific binding was estimated in the presence of 10 μM phentolamine. Receptor proteins were filtered and washed, the filters were then counted to determine [3H]Prazosin specifically bound. Compounds were screened at 1 μM or lower, using 1% DMSO as vehicle. Biochemical assay results are presented as the percent inhibition of specific binding in Table 2.

[3] = target: T3, human recombinant adrenergic α2A receptor (Homo sapiens, UniProt P08913); test: Radioligand binding, adrenergic α2A receptor ([3H]MK-912); conditions: 0.1 μM compound, Sf9 cells, 1 nM [3H]MK-912; for inhibition at 0.1 µM: read-out: Percentage inhibition of ligand binding, Adrenergic α2A
T3 construct: expressed in transfected cells; host or cells: insect Sf9 cells
T3 sequence (P08913 1-465): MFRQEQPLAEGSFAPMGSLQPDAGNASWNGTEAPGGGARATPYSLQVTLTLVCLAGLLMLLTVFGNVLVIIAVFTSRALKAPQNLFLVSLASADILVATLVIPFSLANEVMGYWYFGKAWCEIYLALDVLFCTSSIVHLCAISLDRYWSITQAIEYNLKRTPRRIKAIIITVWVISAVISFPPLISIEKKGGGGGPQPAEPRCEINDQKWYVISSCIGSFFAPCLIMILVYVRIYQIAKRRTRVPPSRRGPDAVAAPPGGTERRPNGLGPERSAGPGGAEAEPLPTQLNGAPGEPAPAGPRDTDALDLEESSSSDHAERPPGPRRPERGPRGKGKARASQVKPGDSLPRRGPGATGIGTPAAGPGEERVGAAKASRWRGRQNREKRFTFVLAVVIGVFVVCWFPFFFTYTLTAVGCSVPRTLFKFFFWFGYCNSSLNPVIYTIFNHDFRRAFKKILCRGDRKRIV
Procedure: To evaluate in radioligand binding assays the activity of compounds, human recombinant adrenergic α2A receptor expressed in insect Sf9 cells (Uhlen, S. et al, J. Pharmacol. Exp. Ther. 271:1558, 1994) in a modified Tris-HCl buffer (50 mM Tris-HCl, pH 7.4, 12.5 mM MgCl2, 2 mM EDTA) was used. Compounds were incubated with 1 nM [^3H]MK-912 for 60 min at 25° C. MK912 is (2S-trans)-1,3,4,5′,6,6′,7,12b-octahydro-1′,3′-dimethyl-spiro[2H-benzofuro[2,3-a]quinolizine-2,4′(1′H)-pyrimidin]-2′(3′H)-one hydrochloride Non-specific binding was estimated in the presence of 10 μM WB-4101 (2-(2,6-Dimethoxyphenoxyethyl)aminoethyl-1,4-benzodioxane hydrochloride). Receptor proteins were filtered and washed, the filters were then counted to determine [^3H]MK-912 specifically bound. Compounds were screened at 1 μM or lower, using 1% DMSO as vehicle. Compounds were tested in this biochemical assay and percent inhibition of specific binding was determined. Biochemical assay results are presented as the percent inhibition of specific binding in Table 2.

[4] = target: T4, rat adrenergic α1B receptor (Rattus norvegicus, UniProt P15823); test: Radioligand binding, adrenergic α1B receptor ([3H]Prazosin); conditions: 0.1 μM compound, Wistar rat liver, read-out: Percentage inhibition of ligand binding, Adrenergic α1B
T4 construct: rat adrenergic α1B receptor obtained from Wistar Rat liver; from tissue; host or cells: Wistar rat liver
T4 sequence (P15823 1-515): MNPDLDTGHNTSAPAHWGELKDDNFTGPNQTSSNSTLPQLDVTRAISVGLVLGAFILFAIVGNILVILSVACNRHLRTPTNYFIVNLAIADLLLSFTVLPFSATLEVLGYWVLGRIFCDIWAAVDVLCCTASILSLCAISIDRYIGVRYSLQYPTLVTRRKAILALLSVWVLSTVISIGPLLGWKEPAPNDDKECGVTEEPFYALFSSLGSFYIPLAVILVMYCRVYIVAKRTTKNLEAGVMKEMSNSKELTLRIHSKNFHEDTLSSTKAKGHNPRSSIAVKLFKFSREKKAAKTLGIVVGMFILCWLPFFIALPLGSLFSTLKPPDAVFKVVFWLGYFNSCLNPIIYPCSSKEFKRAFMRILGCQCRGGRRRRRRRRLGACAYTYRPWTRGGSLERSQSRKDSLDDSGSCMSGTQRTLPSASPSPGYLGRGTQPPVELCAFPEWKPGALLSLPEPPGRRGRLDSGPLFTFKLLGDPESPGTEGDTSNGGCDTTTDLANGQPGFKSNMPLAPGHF
Procedure: To evaluate in radioligand binding assays the activity of compounds, rat adrenergic α1B receptor obtained from Wistar Rat liver (Garcia-S' ainz, J. et al, Biochem. Biophys. Res. Commun. 186:760, 1992; Michel, A. et al, Br. J. Pharmacol. 98:883, 1989) in a modified Tris-HCl buffer (50 mM Tris-HCl buffer, pH 7.4, 0.5 mM EDTA) was used. Compounds were incubated with 0.25 nM [^3H]Prazosin for 60 min at […]. Non-specific binding was estimated in the presence of 10 μM phentolamine. Receptor proteins were filtered and washed, the filters were then counted to determine [^3H]Prazosin specifically bound. Compounds were screened at 1 μM or lower, using 1% DMSO as vehicle. Compounds were tested in this biochemical assay and percent inhibition of specific binding was determined. Biochemical assay results are presented as the percent inhibition of specific binding in Table 2.

SMILES	inhibition at 0.1 µM [1] [%]	inhibition at 0.1 µM [2] [%]	inhibition at 0.1 µM [3] [%]	inhibition at 0.1 µM [4] [%]	inhibition at 0.03 µM ([1]; 0.03 μM compound) [%]	Percentage inhibition of ligand binding, Adrenergic α2A [3] [%]
Cc1ccc2c(c1)c1c(n2-c2ccccc2-c2ccncc2)CCN(C)C1 [Compound 5, 2,8-dimethyl-5-(2-pyridin-4-yl-phenyl)-2,3,4,5-tetrahydro-1H-pyrido[4,3-b]indole]	78	45	26	52		
Cc1ccc2c(c1)c1c(n2-c2ccccc2-c2ccc(F)cc2)CCN(C)C1 [Compound 10, 5-(4′-fluoro-biphenyl-2-yl)-2,8-dimethyl-2,3,4,5-tetrahydro-1H-pyrido[4,3-b]indole]	85	63	88	61		
Cc1ccc2c(c1)c1c(n2-c2ccsc2)CCN(C)C1 [Compound 14, 2,8-dimethyl-5-thiophen-3-yl-2,3,4,5-tetrahydro-1H-pyrido[4,3-b]indole]	51	20	23	38		
Cc1ccc2c(c1)c1c(n2-c2ccoc2)CCN(C)C1 [Compound 15, 5-furan-3-yl-2,8-dimethyl-2,3,4,5-tetrahydro-1H-pyrido[4,3-b]indole]	30	19	10	35		
Cc1ccc2c(c1)c1c(n2-c2cccs2)CCN(C)C1 [Compound 16, 2,8-dimethyl-5-thiophen-2-yl-2,3,4,5-tetrahydro-1H-pyrido[4,3-b]indole]	16	16	-1	8		
Cc1ccc2c(c1)c1c(n2-c2cscc2-c2cnn(C)c2)CCN(C)C1 [Compound 30]	86	17	42	32		
Cc1ccc2c(c1)c1c(n2-c2ccccc2-c2cnc(N(C)C)nc2)CCN(C)C1 [Compound 31]	67	80	74	36		
Cc1ccc2c(c1)c1c(n2-c2ccccc2-c2ccnn2C)CCN(C)C1 [Compound 32]	80	65	72	73		
Cc1ccc2c(c1)c1c(n2-c2ccccc2-c2cn[nH]c2)CCN(C)C1 [Compound No. 104, 5-(2-(1H-pyrazol-4-yl)phenyl)-2,8-dimethyl-2,3,4,5-tetrahydro-1H-pyrido[4,3-b]indole]	87	22	10		61	19
Cc1ccc2c(c1)c1c(n2-c2cnc3c(c2)CCCC3)CCN(C)C1 [Compound No. 153]			1			
Cc1ccc2c(c1)c1c(n2-c2ccccc2-c2cnccc2C)CCN(C)C1 [Compound No. 159, 2,8-dimethyl-5-(2-(4-methylpyridin-3-yl)phenyl)-2,3,4,5-tetrahydro-1H-pyrido[4,3-b]indole]	56					
Cc1ccc2c(c1)c1c(n2-c2ccccc2-c2ccc(S(C)(=O)=O)cc2)CCN(C)C1 [Compound No. 160, 2,8-dimethyl-5-(4′-(methylsulfonyl)biphenyl-2-yl)-2,3,4,5-tetrahydro-1H-pyrido[4,3-b]indole]	74					
Cc1ccc2c(c1)c1c(n2-c2ncccc2-c2ccncc2)CCN(C)C1 [Compound No. 161, 5-(3,4′-bipyridin-2-yl)-2,8-dimethyl-2,3,4,5-tetrahydro-1H-pyrido[4,3-b]indole]	26					
Cc1ccc2c(c1)c1c(n2-c2ccccc2-c2ccc(S(N)(=O)=O)cc2)CCN(C)C1 [Compound No. 163, 2′-(2,8-dimethyl-3,4-dihydro-1H-pyrido[4,3-b]indol-5(2H)-yl)biphenyl-4-sulfonamide]	69					
Cc1ccc2c(c1)c1c(n2-c2cnc(C)c3ccccc23)CCN(C)C1 [Compound No. 164, 2,8-dimethyl-5-(1-methylisoquinolin-4-yl)-2,3,4,5-tetrahydro-1H-pyrido[4,3-b]indole]	3					
